The IC50 is the concentration that gives 50% inhibition.

The values below come from US12398154B2, “Azaquinazoline pan-KRas inhibitors” (Mirati Therapeutics, Inc., priority 2020, dated 2025).

The structures appear in SMILES notation.

Test [1] concerns phospho-ERK in A549 (G12S) cells. Put plainly: Inhibition of KRas-mediated phosphorylation of ERK (in-cell western). In kind it is cell-based. Conditions: Homo sapiens, 3 hours compound, phospho-ERK normalized to GAPDH. In short, it runs like this:
(§1)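 Following fixation in formaldehyde and permeabilization in cold methanol, ERK phosphorylated at Thr202/Tyr204 was quantified against GAPDH.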

Test [2] concerns phospho-ERK in AsPC-1 (G12D) cells. Described as above. In kind it is cell-based. Particulars: Homo sapiens, ASPC1, 3 h, 3 hours compound, phospho-ERK normalized to GAPDH. In short, it runs like this: as §1
Test [3] deals with phospho-ERK in HCT116 (G13D) cells. The description is as above. It counts as cell-based. Particulars: Homo sapiens, HCT-116, 3 hours compound, phospho-ERK normalized to GAPDH. In short, it runs like this:
as §1

Test [4] has as its system phospho-ERK in MKN1 (WTdep) cells. The description is as above. In kind it is cell-based. Particulars: Homo sapiens, MKN-1, 3 hours compound, phospho-ERK normalized to GAPDH. In short, it runs like this: as §1
Test [5] relates to phospho-ERK in NCI-H460 (Q61H) cells. The description is as above. Particulars: Homo sapiens, NCI-H460, 3 h, 3 hours compound, phospho-ERK normalized to GAPDH. It counts as cell-based. In short, it runs like this:
as §1

The subject of test [6] is phospho-ERK in NCI-H727 (G12V) cells. The description is as above. It counts as cell-based. Particulars: Homo sapiens, NCI-H727, 3 h, 3 hours compound, phospho-ERK normalized to GAPDH. In short, it runs like this: as §1
Test [7] concerns phospho-ERK in PSN-1 (G12R) cells. The test is described as above. In kind it is cell-based. Conditions: Homo sapiens, PSN1, 3 hours compound, phospho-ERK normalized to GAPDH. In short, it runs like this:
as §1

For the next test, the target named is KRas G12D (Homo sapiens, UniProt P01116, G12D). Briefly: biochemical.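 Also: TR-FRET displacement binding assay on KRas, read after a one-hour incubation at room temperature, IC50 fitted from percent-of-control values.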
A further test deals with KRas G12V (Homo sapiens, UniProt P01116, G12V). Briefly: biochemical.
The target of another test is KRas G12R (Homo sapiens, UniProt P01116, G12R). Briefly: biochemical.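 Also: TR-FRET displacement assay of compound binding to KRas, read after one hour at room temperature, potency from a four-parameter fit of percent-of-control values.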
Another test concerns pERK in MKN1 cells. Briefly: Inhibition of KRas phosphorylation of ERK (Cisbio HTRF pERK assay). Conditions: Homo sapiens, MKN-1, 3 h, read-out: Inhibition (HTRF IC50) of KRas-mediated Phosphorylation of ERK, MKN1. On the technique in general: In TR-FRET formats the signal depends on donor and acceptor labels being close together.
A further test relates to pERK in PSN1 cells. The test is described as above. Particulars: Homo sapiens, PSN1, 3 h, read-out: Inhibition (HTRF IC50) of KRas-mediated Phosphorylation of ERK, PSN1.
The next test concerns pERK in ASPC1 cells. The test is described as above. Conditions: Homo sapiens, ASPC1, read-out: Inhibition (HTRF IC50) of KRas-mediated Phosphorylation of ERK, AsPC-1.
The next test relates to pERK in H727 cells. The description is as above. Conditions: Homo sapiens, NCI-H727, read-out: Inhibition (HTRF IC50) of KRas-mediated Phosphorylation of ERK, H727.
The test system of the next test is pERK in A549 cells. Described as above. Conditions: Homo sapiens, A549, read-out: Inhibition (HTRF IC50) of KRas-mediated Phosphorylation of ERK, A549.
The subject of a further test is pERK in H460 cells. The description is as above. Particulars: Homo sapiens, NCI-H460, read-out: Inhibition (HTRF IC50) of KRas-mediated Phosphorylation of ERK, H460.
A further test relates to pERK in HCT116 cells. Described as above. Conditions: Homo sapiens, HCT-116, read-out: Inhibition (HTRF IC50) of KRas-mediated Phosphorylation of ERK, HCT116.
The subject of test [8] is phospho-ERK in NCI-H358 (G12C) cells. Put plainly: Inhibition of KRas-mediated phosphorylation of ERK (in-cell western). Conditions: Homo sapiens, 3 hours compound, phospho-ERK normalized to GAPDH. It counts as cell-based. In short, it runs like this:
as §1

Chain of KRas G12R (P01116 1-169 isoform P01116-2 G12R): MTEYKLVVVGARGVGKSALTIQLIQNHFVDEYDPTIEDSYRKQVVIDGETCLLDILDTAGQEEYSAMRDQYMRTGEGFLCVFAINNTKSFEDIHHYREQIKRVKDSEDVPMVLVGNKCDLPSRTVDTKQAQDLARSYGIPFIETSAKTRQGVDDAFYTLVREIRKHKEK
Chain of KRas G12V (P01116 1-169 isoform P01116-2 G12V): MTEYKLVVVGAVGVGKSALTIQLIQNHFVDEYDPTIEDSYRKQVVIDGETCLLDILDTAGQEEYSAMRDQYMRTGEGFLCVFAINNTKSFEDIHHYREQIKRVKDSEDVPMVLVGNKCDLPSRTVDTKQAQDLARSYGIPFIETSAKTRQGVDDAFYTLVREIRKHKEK
Chain of KRas G12D (P01116 1-169 isoform P01116-2 G12D): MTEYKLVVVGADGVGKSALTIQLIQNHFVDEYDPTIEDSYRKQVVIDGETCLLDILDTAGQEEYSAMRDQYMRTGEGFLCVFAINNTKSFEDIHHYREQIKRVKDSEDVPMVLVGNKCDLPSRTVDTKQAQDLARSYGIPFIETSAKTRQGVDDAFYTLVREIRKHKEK

As to `CCc1c(F)ccc2cc(O)cc(-c3ncc4c(N5C[C@@H]6C[C@H](C5)[C@H](O)C6)nc(OC[C@@]56CCCN5C[C@H](F)C6)nc4c3F)c12` (single isomer, unassigned) [Example 140], the IC50 in test [1] came to 9 nM; in [2], 27 nM; in [3], 11 nM; in test [4], 2 nM; in test [5] it was 17 nM; in [6], 28 nM. Besides, the half-maximal inhibitory concentration (IC50) is 1 nM in test [7]; not above 2 nM against KRas G12D; not above 2 nM at KRas G12V; not above 2 nM on KRas G12R; 1 nM in the test on pERK in MKN1 cells; 922 nM with pERK in PSN1 cells. The IC50 with pERK in ASPC1 cells was 7 nM; in the test with pERK in H727 cells, 4 nM; with pERK in A549 cells, 2 nM; with pERK in H460 cells, 4 nM; with pERK in HCT116 cells it was 7 nM.
On to `CCc1c(F)ccc2cc(O)cc(-c3ncc4c(NC56CC(O)(C5)C6)nc(OC[C@@]56CCCN5C[C@H](F)C6)nc4c3F)c12` [Example 166], for which the IC50 in test [1] is not below 10000 nM; in test [3] it was not below 10000 nM; in test [8], 328 nM; in test [6] it was not below 10000 nM; in test [7], not below 10000 nM; at KRas G12D, 7 nM. Also, the IC50 at KRas G12V and on KRas G12R was not above 2 nM throughout.
For `CCc1c(F)ccc2cc(O)cc(-c3ncc4c(NC5CS(=O)(=O)C5)nc(OC[C@@]56CCCN5C[C@H](F)C6)nc4c3F)c12` [Example 168], the IC50 is not below 10000 nM in test [1]; 821 nM in test [3]; 156 nM in [8]; 1800 nM in test [6]; not below 10000 nM in test [7]; 5 nM on KRas G12D. In addition, the IC50 against KRas G12V and against KRas G12R was not above 2 nM throughout.
As for `CCc1c(F)ccc2cc(O)cc(-c3ncc4c(N5CCCC(CS(N)(=O)=O)C5)nc(OC[C@@]56CCCN5C[C@H](F)C6)nc4c3F)c12` (stereo partly drawn) [Example 170], the half-maximal inhibitory concentration (IC50) in [1] is not below 10000 nM; in [3] it was 2350 nM; in [8], 470 nM; in [6] it was 3400 nM; in [7], not below 10000 nM; on KRas G12D, not above 2 nM. Also, the IC50 against KRas G12V and at KRas G12R was not above 2 nM in each case.
With `CCc1c(F)ccc2cc(O)cc(-c3ncc4c(Nc5ccc6cn[nH]c6c5)nc(OC[C@@]56CCCN5C[C@H](F)C6)nc4c3F)c12` [Example 171, 4-(4-((1H-indazol-6-yl)amino)-8-fluoro-2-(((2R,7aS)-2-fluorohexahydro-1H-pyrrolizin-7a-yl)methoxy)pyrido[4,3-d]pyrimidin-7-yl)-5-ethyl-6-fluoronaphthalen-2-ol], the IC50 was not below 10000 nM in test [1]; not below 10000 nM in test [3]; not below 10000 nM in [8]; not below 10000 nM in [6]; not below 10000 nM in test [7]; 89 nM against KRas G12D. For the same compound, the values for the IC50 against KRas G12V and at KRas G12R were 3 nM and 9 nM, respectively.
`CCc1c(F)ccc2cc(O)cc(-c3ncc4c(N5CCCC(O)C5)nc(OC[C@@]56CCCN5C[C@H](F)C6)nc4c3F)c12` (stereo partly drawn) [Example 299, 1-(7-(8-ethyl-7-fluoro-3-hydroxynaphthalen-1-yl)-8-fluoro-2-(((2R,7aS)-2-fluorohexahydro-1H-pyrrolizin-7a-yl)methoxy)pyrido[4,3-d]pyrimidin-4-yl)piperidin-3-ol]: the IC50 in test [1] is 108 nM; in [3], 333 nM; in test [8], 29 nM; in test [6] it was 126 nM; in test [7] it was not below 10000 nM.
